Experimental data: ChEMBL document CHEMBL1201862, “PubChem BioAssay data set” (2004)
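Compound exposure: 48 hours, 5 concentrations, 96-well plates. GI50 = concentration required for 50% inhibition of growth.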 The source made the active and inactive calls. Cut-off read from the data, not from the text of the source: active = GI50 up to about 1.1 µM and inactive = higher.

Legend:
Assay in all cases: NCI tumour cell line growth inhibition, 48 h
OVCAR-8 = test system: OVCAR-8
RPMI-8226 = test system: RPMI-8226
Malme-3M = test system: Malme-3M
SF-295 = test system: SF-295
DU-145 = test system: DU-145
NCI-H226 = test system: NCI-H226
NCI-H23 = test system: NCI-H23
SF-539 = test system: SF-539
NCI-H460 = test system: NCI-H460
SW-620 = test system: SW-620
UO-31 = test system: UO-31
CCRF-CEM = test system: CCRF-CEM
A498 = test system: A498
SN12C = test system: SN12C
K562 = test system: K562
ACHN = test system: ACHN
MDA-MB-231 = test system: MDA-MB-231
U-251 = test system: U-251
OVCAR-3 = test system: OVCAR-3
HL-60 = test system: HL-60
Hs-578T = test system: Hs-578T
EKVX = test system: EKVX
HCT-116 = test system: HCT-116
KM12 = test system: KM12
TK-10 = test system: TK-10
UACC-257 = test system: UACC-257
M14 = test system: M14
SK-MEL-28 = test system: SK-MEL-28
COLO 205 = test system: COLO 205
LOX IMVI = test system: LOX IMVI
HOP-92 = test system: HOP-92
HCT-15 = test system: HCT-15
MDA-MB-435 = test system: MDA-MB-435
SNB-19 = test system: SNB-19
PC-3 = test system: PC-3
OVCAR-5 = test system: OVCAR-5
NCI/ADR-RES = test system: NCI/ADR-RES
IGROV-1 = test system: IGROV-1
SK-OV-3 = test system: SK-OV-3
NCI-H522 = test system: NCI-H522
BT-549 = test system: BT-549
HOP-62 = test system: HOP-62
HCC 2998 = test system: HCC 2998
MDA-N = test system: MDA-N
SK-MEL-5 = test system: SK-MEL-5
UACC-62 = test system: UACC-62
HT-29 = test system: HT-29
A549 = test system: A549
MCF7 = test system: MCF7
786-0 = test system: 786-0
CAKI-1 = test system: CAKI-1
SF-268 = test system: SF-268
MOLT-4 = test system: MOLT-4
SK-MEL-2 = test system: SK-MEL-2
SNB-75 = test system: SNB-75
OVCAR-4 = test system: OVCAR-4
RXF 393 = test system: RXF 393
SR = test system: SR

`CN(CC(=O)N1CC(CCl)c2ccc([N+](=O)[O-])cc21)CC(=O)N1CC(CCl)c2ccc([N+](=O)[O-])cc21` (stereo not given) was tested, and the GI50 (OVCAR-8) was > 100 µM (inactive), the GI50 (RPMI-8226) was 95.9 µM (inactive) and the GI50 (Malme-3M) was > 100 µM (inactive). For the same compound, the GI50 (SF-295) was > 100 µM (inactive), the GI50 (DU-145) was > 100 µM (inactive) and the GI50 (NCI-H226) was > 100 µM (inactive). For the same compound, the GI50 (NCI-H23) was > 100 µM (inactive), the GI50 (SF-539) was > 100 µM (inactive) and the GI50 (NCI-H460) was > 100 µM (inactive). For the same compound, the GI50 (SW-620) was > 100 µM (inactive), the GI50 (UO-31) was > 100 µM (inactive) and the GI50 (CCRF-CEM) was > 100 µM (inactive). For the same compound, the GI50 (A498) was > 100 µM (inactive), the GI50 (SN12C) was > 100 µM (inactive) and the GI50 (K562) was > 100 µM (inactive). The GI50 (ACHN) was > 100 µM (inactive), the GI50 (MDA-MB-231) was > 100 µM (inactive) and the GI50 (U-251) was > 100 µM (inactive). For the same compound, the GI50 (OVCAR-3) was 74.1 µM (inactive), the GI50 (HL-60) was > 100 µM (inactive) and the GI50 (Hs-578T) was > 100 µM (inactive). For the same compound, the GI50 (EKVX) was > 100 µM (inactive), the GI50 (HCT-116) was > 100 µM (inactive) and the GI50 (KM12) was > 100 µM (inactive). The GI50 (TK-10) was > 100 µM (inactive), the GI50 (UACC-257) was > 100 µM (inactive) and the GI50 (M14) was > 100 µM (inactive). The GI50 (SK-MEL-28) was > 100 µM (inactive), the GI50 (COLO 205) was > 100 µM (inactive) and the GI50 (LOX IMVI) was > 100 µM (inactive). For the same compound, the GI50 (HOP-92) was > 100 µM (inactive), the GI50 (HCT-15) was greater than 100 µM and the GI50 (MDA-MB-435) was 83.9 µM (inactive). The GI50 (SNB-19) was > 100 µM (inactive), the GI50 (PC-3) was > 100 µM (inactive) and the GI50 (OVCAR-5) was > 100 µM (inactive). The GI50 (NCI/ADR-RES) was > 100 µM (inactive), the GI50 (IGROV-1) was 34.9 µM (inactive) and the GI50 (SK-OV-3) was > 100 µM (inactive). For the same compound, the GI50 (NCI-H522) was 7.73 µM (inactive), the GI50 (BT-549) was > 100 µM (inactive) and the GI50 (HOP-62) was > 100 µM (inactive). The GI50 (HCC 2998) was > 100 µM (inactive), the GI50 (MDA-N) was > 100 µM (inactive) and the GI50 (SK-MEL-5) was 98.9 µM (inactive). For the same compound, the GI50 (UACC-62) was > 100 µM (inactive), the GI50 (HT-29) was > 100 µM (inactive) and the GI50 (A549) was > 100 µM (inactive). For the same compound, the GI50 (MCF7) was > 100 µM (inactive), the GI50 (786-0) was > 100 µM (inactive) and the GI50 (CAKI-1) was > 100 µM (inactive). The GI50 (SF-268) was > 100 µM (inactive), the GI50 (MOLT-4) was > 100 µM (inactive) and the GI50 (SK-MEL-2) was 97.9 µM (inactive). The GI50 (SNB-75) was > 100 µM (inactive).
In the case of `CCOC(=O)NC(C(F)(F)F)(C(F)(F)F)P(=O)(OC(C)C)OC(C)C`, the GI50 (OVCAR-8) is reported as > 100 µM (inactive), the GI50 (RPMI-8226) is reported as > 100 µM (inactive) and the GI50 (Malme-3M) is reported as > 100 µM (inactive). For the same compound, the GI50 (SF-295) was > 100 µM (inactive), the GI50 (DU-145) was > 100 µM (inactive) and the GI50 (NCI-H226) was 58.7 µM (inactive). The GI50 (NCI-H23) was > 100 µM (inactive), the GI50 (SF-539) was > 100 µM (inactive) and the GI50 (NCI-H460) was > 100 µM (inactive). For the same compound, the GI50 (SW-620) was > 100 µM (inactive), the GI50 (UO-31) was > 100 µM (inactive) and the GI50 (CCRF-CEM) was > 100 µM (inactive). For the same compound, the GI50 (SN12C) was > 100 µM (inactive), the GI50 (K562) was > 100 µM (inactive) and the GI50 (ACHN) was > 100 µM (inactive). For the same compound, the GI50 (MDA-MB-231) was > 100 µM (inactive), the GI50 (U-251) was > 100 µM (inactive) and the GI50 (OVCAR-3) was > 100 µM (inactive). The GI50 (HL-60) was > 100 µM (inactive), the GI50 (Hs-578T) was > 100 µM (inactive) and the GI50 (EKVX) was > 100 µM (inactive). For the same compound, the GI50 (HCT-116) was > 100 µM (inactive), the GI50 (OVCAR-4) was > 100 µM (inactive) and the GI50 (KM12) was > 100 µM (inactive). For the same compound, the GI50 (TK-10) was > 100 µM (inactive), the GI50 (UACC-257) was > 100 µM (inactive) and the GI50 (SK-MEL-28) was > 100 µM (inactive). The GI50 (COLO 205) was > 100 µM (inactive), the GI50 (LOX IMVI) was > 100 µM (inactive) and the GI50 (HCT-15) was greater than 100 µM. The GI50 (MDA-MB-435) was > 100 µM (inactive), the GI50 (SNB-19) was > 100 µM (inactive) and the GI50 (PC-3) was > 100 µM (inactive). For the same compound, the GI50 (OVCAR-5) was > 100 µM (inactive), the GI50 (NCI/ADR-RES) was > 100 µM (inactive) and the GI50 (IGROV-1) was > 100 µM (inactive). For the same compound, the GI50 (SK-OV-3) was > 100 µM (inactive), the GI50 (BT-549) was > 100 µM (inactive) and the GI50 (HOP-62) was > 100 µM (inactive). The GI50 (HCC 2998) was > 100 µM (inactive), the GI50 (MDA-N) was > 100 µM (inactive) and the GI50 (SK-MEL-5) was > 100 µM (inactive). The GI50 (UACC-62) was > 100 µM (inactive), the GI50 (HT-29) was > 100 µM (inactive) and the GI50 (A549) was > 100 µM (inactive). The GI50 (MCF7) was > 100 µM (inactive), the GI50 (786-0) was > 100 µM (inactive) and the GI50 (RXF 393) was > 100 µM (inactive). The GI50 (SR) was > 100 µM (inactive), the GI50 (SF-268) was > 100 µM (inactive) and the GI50 (MOLT-4) was > 100 µM (inactive). The GI50 (SK-MEL-2) was > 100 µM (inactive) and the GI50 (SNB-75) was > 100 µM (inactive).
For `COc1c(C)c(C/C=C(\C)CC/C=C(\C)CC/C=C(\C)CCC=C(C)C)c(OC)c(OC)c1OC`, the GI50 (OVCAR-8) was > 100 µM (inactive), the GI50 (SF-295) was > 100 µM (inactive) and the GI50 (DU-145) was > 100 µM (inactive). The GI50 (NCI-H23) was > 100 µM (inactive), the GI50 (SF-539) was > 100 µM (inactive) and the GI50 (NCI-H460) was > 100 µM (inactive). For the same compound, the GI50 (SW-620) was > 100 µM (inactive), the GI50 (UO-31) was > 100 µM (inactive) and the GI50 (CCRF-CEM) was > 100 µM (inactive). The GI50 (SN12C) was > 100 µM (inactive), the GI50 (K562) was > 100 µM (inactive) and the GI50 (ACHN) was > 100 µM (inactive). The GI50 (MDA-MB-231) was > 100 µM (inactive), the GI50 (U-251) was > 100 µM (inactive) and the GI50 (OVCAR-3) was > 100 µM (inactive). The GI50 (Hs-578T) was > 100 µM (inactive), the GI50 (EKVX) was > 100 µM (inactive) and the GI50 (HCT-116) was > 100 µM (inactive). For the same compound, the GI50 (OVCAR-4) was > 100 µM (inactive), the GI50 (KM12) was > 100 µM (inactive) and the GI50 (TK-10) was > 100 µM (inactive). The GI50 (UACC-257) was > 100 µM (inactive), the GI50 (M14) was > 100 µM (inactive) and the GI50 (COLO 205) was > 100 µM (inactive). The GI50 (LOX IMVI) was > 100 µM (inactive), the GI50 (HOP-92) was > 100 µM (inactive) and the GI50 (HCT-15) was greater than 100 µM. For the same compound, the GI50 (MDA-MB-435) was > 100 µM (inactive), the GI50 (SNB-19) was > 100 µM (inactive) and the GI50 (PC-3) was > 100 µM (inactive). For the same compound, the GI50 (OVCAR-5) was > 100 µM (inactive), the GI50 (NCI/ADR-RES) was > 100 µM (inactive) and the GI50 (IGROV-1) was > 100 µM (inactive). The GI50 (SK-OV-3) was > 100 µM (inactive), the GI50 (NCI-H522) was > 100 µM (inactive) and the GI50 (BT-549) was > 100 µM (inactive). For the same compound, the GI50 (HOP-62) was > 100 µM (inactive), the GI50 (HCC 2998) was > 100 µM (inactive) and the GI50 (MDA-N) was > 100 µM (inactive). The GI50 (SK-MEL-5) was > 100 µM (inactive), the GI50 (UACC-62) was > 100 µM (inactive) and the GI50 (HT-29) was > 100 µM (inactive). The GI50 (A549) was > 100 µM (inactive), the GI50 (MCF7) was > 100 µM (inactive) and the GI50 (786-0) was > 100 µM (inactive). For the same compound, the GI50 (RXF 393) was > 100 µM (inactive), the GI50 (CAKI-1) was > 100 µM (inactive) and the GI50 (SR) was > 100 µM (inactive). For the same compound, the GI50 (SF-268) was > 100 µM (inactive), the GI50 (MOLT-4) was > 100 µM (inactive) and the GI50 (SK-MEL-2) was > 100 µM (inactive). For the same compound, the GI50 (SNB-75) was > 100 µM (inactive).
